# Experimental data published in patent US6262073A, “Pharmaceutical methods of use of 5-substituted and 5,5 disubstituted-3,4-dihydroxy-2(5H)-furanones” (Oxis International Inc., priority 2000, dated 2001).
# Target: T1, Cyclooxygenase-1 (cyclooxygenase from ram seminal vesicles) (Ovis aries, UniProt P05979)
# T1 construct: cyclooxygenase from ram seminal vesicles; from tissue; host or cells: ram seminal vesicles
# T1 sequence (P05979 25-600): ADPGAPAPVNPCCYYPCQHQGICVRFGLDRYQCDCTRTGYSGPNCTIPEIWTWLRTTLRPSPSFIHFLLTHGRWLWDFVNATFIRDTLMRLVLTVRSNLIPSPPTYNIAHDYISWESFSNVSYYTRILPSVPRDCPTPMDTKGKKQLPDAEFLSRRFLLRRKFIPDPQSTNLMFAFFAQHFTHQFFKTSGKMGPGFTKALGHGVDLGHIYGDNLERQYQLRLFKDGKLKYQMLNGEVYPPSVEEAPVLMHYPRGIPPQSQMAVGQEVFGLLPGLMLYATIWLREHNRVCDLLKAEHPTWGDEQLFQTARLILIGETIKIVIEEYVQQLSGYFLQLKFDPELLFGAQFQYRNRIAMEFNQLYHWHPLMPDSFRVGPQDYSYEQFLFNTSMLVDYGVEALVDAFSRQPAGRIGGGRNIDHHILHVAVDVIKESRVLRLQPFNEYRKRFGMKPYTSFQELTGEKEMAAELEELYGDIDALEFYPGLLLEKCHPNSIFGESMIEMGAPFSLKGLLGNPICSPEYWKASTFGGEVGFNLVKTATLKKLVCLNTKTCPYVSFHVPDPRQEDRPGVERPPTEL
# Experiment: Cyclooxygenase-1 screen (COX-1)
# Format: biochemical
# Settings: 300 μM
# Protocol: (§1) The compounds of the invention were screened for their anti-inflammatory activity using a series of in vitro tests the details of which are given below. The activity of various compounds against 5-lipoxygenase, cycloxygenase-1, cycloxygenase-2 and lipid peroxidase was evaluated. Results of the screening procedures are included in TABLE I, and the activity against 5-lipoxygenase at a test concentration of 1 μM in Table II.
# Cyclooxygenase-1 is involved in the formation of prostaglandins and thromboxane via the oxidative metabolism of arachidonic acid. Briefly, cyclooxygenase from ram seminal vesicles is incubated with arachidonic acid (100 μm) for 2 minutes at 37° C. in the presence or absence of test compounds according to the methods of A. T. Evans et al., Biochem. Pharm. 36:2035-2037(1987) and R. Boopathy et al., Biochem J. 239:371-377 (1968). The assay is terminated by the addition of trichioroacetic acid and cyclooxygenase activity is determined by reading the absorbance at 530 nm. […]
row,Compound,COX-1 percent inhibition
1,"O=C1OC(CCOc2ccc(Oc3ccccc3)cc2)C(O)=C1O (centres unmarked) [Example 15, 3,4-Dihydroxy-5-[2-(4-phenoxy)phenoxyethyl]-2(5H)-furanone]",9%
2,"O=C1OC(CCOc2ccc3oc4ccccc4c3c2)C(O)=C1O (centres unmarked) [Example 17, 5-[2-(Dibenzofuran-2-oxy)ethyl]-3,4-dihydroxy-2(5H)-furanone]",17%
3,"CC(C)Cc1ccc(C2(C)OC(=O)C(O)=C2O)cc1 (centres unmarked) [Example 3, 3,4-Dihydroxy-5-methyl-5-[4-(2-methylpropyl)phenyl]-2(5H)-furanone]",2%
4,CCC/C=C\Cc1ccccc1C#CCCC1OC(=O)C(O)=C1O (centres unmarked) [Example 29],55%
5,"O=C1OC(CCSc2cccc3ccccc23)C(O)=C1O (centres unmarked) [Example 25, 3,4-Dihydroxy-5-[2-(naphthyl-1-thio)ethyl]-2(5H)-furanone]",6%
6,"CC1(c2ccccc2)OC(=O)C(O)=C1O (centres unmarked) [Example 1, 3,4-Dihydroxy-5-methyl-5-phenyl-2(5H)-furanone]",-12%
7,"CC1(c2ccc(Cl)cc2)OC(=O)C(O)=C1O (centres unmarked) [Example 4, 5-(4-Chlorophenyl)-3,4-dihydroxy-5-methyl-2(5H)-furanone]",2%

# Target: T2, Cyclooxygenase-2 (prostaglandin H synthetase-2) from sheep placenta (Ovis aries, UniProt P79208)
# T2 construct: cyclooxygenase-2 from sheep placenta; from tissue; host or cells: sheep placenta
# T2 sequence (P79208 17-603): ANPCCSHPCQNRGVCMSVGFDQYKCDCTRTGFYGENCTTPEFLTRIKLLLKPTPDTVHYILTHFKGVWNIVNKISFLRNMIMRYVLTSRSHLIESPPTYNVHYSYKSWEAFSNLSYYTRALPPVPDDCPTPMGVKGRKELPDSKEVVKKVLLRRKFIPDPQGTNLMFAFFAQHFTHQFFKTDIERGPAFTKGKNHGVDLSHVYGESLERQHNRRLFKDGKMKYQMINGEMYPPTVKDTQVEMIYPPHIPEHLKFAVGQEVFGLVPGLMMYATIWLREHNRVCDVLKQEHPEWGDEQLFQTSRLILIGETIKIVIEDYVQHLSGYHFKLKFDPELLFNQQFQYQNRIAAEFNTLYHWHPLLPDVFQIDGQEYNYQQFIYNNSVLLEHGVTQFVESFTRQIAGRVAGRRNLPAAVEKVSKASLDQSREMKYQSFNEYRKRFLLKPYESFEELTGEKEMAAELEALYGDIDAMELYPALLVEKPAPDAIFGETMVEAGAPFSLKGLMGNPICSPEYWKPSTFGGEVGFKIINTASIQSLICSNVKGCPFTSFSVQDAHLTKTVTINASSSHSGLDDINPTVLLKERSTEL
# Experiment: Cyclooxygenase-2 screen (COX-2)
# Format: biochemical
# Settings: read-out: COX-2 percent inhibition
# Protocol: as §1
# Cyclooxygenase-2, also known as prostaglandin H synthetase-2, catalyzes the rate- limiting step in the synthesis of inflammatory prostaglandins. In this reaction cyclooxygenase-2 catalyzes the oxygenation of unesterified precursors to form cyclic endoperoxide derivatives, including prostaglandin H. Briefly, cyclooxygenase-2 from sheep placenta, 14 μg/assay tube, is incubated with arachidonic acid (500 μM) for 1.5 minutes at 27° C. in the absence or presence of test compounds according to the methods of A. T. Evans, et al., Biochem Pharm. […] Res. Comm. […] Compounds are screened at 300 μM.
row,Compound,inhibition at 300 µM
1,"O=C1OC(CCOc2ccc(Oc3ccccc3)cc2)C(O)=C1O (centres unmarked) [Example 15, 3,4-Dihydroxy-5-[2-(4-phenoxy)phenoxyethyl]-2(5H)-furanone]",-4%
2,"O=C1OC(CCOc2ccc3oc4ccccc4c3c2)C(O)=C1O (centres unmarked) [Example 17, 5-[2-(Dibenzofuran-2-oxy)ethyl]-3,4-dihydroxy-2(5H)-furanone]",21%
3,"O=C1OC(CCOc2ccc3ccccc3n2)C(O)=C1O (centres unmarked) [Example 23, 3,4-Dihydroxy-5-[2-(quinoline-2-oxy)ethyl]-2(5H)-furanone]",-2%
4,"CC(C)Cc1ccc(C2(C)OC(=O)C(O)=C2O)cc1 (centres unmarked) [Example 3, 3,4-Dihydroxy-5-methyl-5-[4-(2-methylpropyl)phenyl]-2(5H)-furanone]",-4%
5,CCC/C=C\Cc1ccccc1C#CCCC1OC(=O)C(O)=C1O (centres unmarked) [Example 29],26%
6,"O=C1OC(CCSc2cccc3ccccc23)C(O)=C1O (centres unmarked) [Example 25, 3,4-Dihydroxy-5-[2-(naphthyl-1-thio)ethyl]-2(5H)-furanone]",19%
7,"CC1(c2ccccc2)OC(=O)C(O)=C1O (centres unmarked) [Example 1, 3,4-Dihydroxy-5-methyl-5-phenyl-2(5H)-furanone]",3%
8,"CC1(c2ccc(Cl)cc2)OC(=O)C(O)=C1O (centres unmarked) [Example 4, 5-(4-Chlorophenyl)-3,4-dihydroxy-5-methyl-2(5H)-furanone]",24%

# Target: T3, 5-Lipoxygenase (crude enzyme preparation from rat basophilic leukemia cells, RBL-1) (Rattus norvegicus, UniProt P12527)
# T3 construct: crude enzyme preparation from rat basophilic leukemia cells (RBL-1); endogenous in cells; host or cells: rat basophilic leukemia cells (RBL-1)
# T3 sequence (P12527 1-673): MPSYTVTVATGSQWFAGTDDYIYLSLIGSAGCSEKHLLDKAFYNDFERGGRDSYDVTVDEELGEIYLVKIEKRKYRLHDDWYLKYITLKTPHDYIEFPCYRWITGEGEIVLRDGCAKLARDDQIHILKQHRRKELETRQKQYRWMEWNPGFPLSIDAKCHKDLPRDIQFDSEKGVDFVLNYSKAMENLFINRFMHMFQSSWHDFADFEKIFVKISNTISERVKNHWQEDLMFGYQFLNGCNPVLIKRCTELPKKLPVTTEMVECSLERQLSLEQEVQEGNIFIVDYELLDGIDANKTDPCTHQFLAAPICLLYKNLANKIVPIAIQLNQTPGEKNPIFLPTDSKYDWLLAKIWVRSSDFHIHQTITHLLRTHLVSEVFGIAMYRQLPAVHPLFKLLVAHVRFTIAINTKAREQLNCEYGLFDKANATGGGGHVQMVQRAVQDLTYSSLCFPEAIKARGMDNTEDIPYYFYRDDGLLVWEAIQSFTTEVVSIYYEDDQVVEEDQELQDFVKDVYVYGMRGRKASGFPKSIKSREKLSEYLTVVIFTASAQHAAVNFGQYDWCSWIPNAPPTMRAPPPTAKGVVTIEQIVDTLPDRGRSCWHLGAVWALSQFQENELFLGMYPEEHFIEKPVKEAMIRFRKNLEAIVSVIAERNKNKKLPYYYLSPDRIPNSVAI
# Experiment: 5-Lipoxygenase screen (5-LO), 5-HETE by RIA
# Format: biochemical
# Settings: 30 μM; read-out: 5-LO percent inhibition
# Protocol: as §1
# 5-Lipoxygenase catalyzes the oxidative metabolism of arachidonic acid to […] (5-HETE), the initial reaction leading to the formation of the leukotrienes. Briefly, the testing procedure utilizes a crude enzyme preparation from rat basophilic leukemia cells (RBL-1) according to the methods of T. Shimuzu et al. Pro. […] Test compounds are pre-incubated with the enzyme preparation for 5 minutes at room temperature and the reaction is initiated by the addition of arachidonic acid. Following an 8 minute incubation at room temperature, the reaction is terminated by the addition of citric acid and concentrations of 5-HETE are determined by RIA. Compounds are screened at 30 μM.
row,Compound,inhibition at 30 µM
1,"O=C1OC(CCOc2ccc(Oc3ccccc3)cc2)C(O)=C1O (centres unmarked) [Example 15, 3,4-Dihydroxy-5-[2-(4-phenoxy)phenoxyethyl]-2(5H)-furanone]",100%
2,"O=C1OC(CCOc2ccc3oc4ccccc4c3c2)C(O)=C1O (centres unmarked) [Example 17, 5-[2-(Dibenzofuran-2-oxy)ethyl]-3,4-dihydroxy-2(5H)-furanone]",99%
3,"O=C1OC(CCOc2ccc3ccccc3n2)C(O)=C1O (centres unmarked) [Example 23, 3,4-Dihydroxy-5-[2-(quinoline-2-oxy)ethyl]-2(5H)-furanone]",93%
4,"CC(C)Cc1ccc(C2(C)OC(=O)C(O)=C2O)cc1 (centres unmarked) [Example 3, 3,4-Dihydroxy-5-methyl-5-[4-(2-methylpropyl)phenyl]-2(5H)-furanone]",99%
5,CCC/C=C\Cc1ccccc1C#CCCC1OC(=O)C(O)=C1O (centres unmarked) [Example 29],81%
6,"O=C1OC(CCSc2cccc3ccccc23)C(O)=C1O (centres unmarked) [Example 25, 3,4-Dihydroxy-5-[2-(naphthyl-1-thio)ethyl]-2(5H)-furanone]",102%
7,"CC1(c2ccccc2)OC(=O)C(O)=C1O (centres unmarked) [Example 1, 3,4-Dihydroxy-5-methyl-5-phenyl-2(5H)-furanone]",58%
8,"CC1(c2ccc(Cl)cc2)OC(=O)C(O)=C1O (centres unmarked) [Example 4, 5-(4-Chlorophenyl)-3,4-dihydroxy-5-methyl-2(5H)-furanone]",2%

# Same assay, conditions: read-out: Percent inhibition of 5-LO; test conc. 1 μM (Table II)
row,Compound,inhibition at 1 µM
1,"O=C1OC(CCOc2ccc(Oc3ccccc3)cc2)C(O)=C1O (centres unmarked) [Example 15, 3,4-Dihydroxy-5-[2-(4-phenoxy)phenoxyethyl]-2(5H)-furanone]",52%
2,"O=C1OC(CCOc2ccc3oc4ccccc4c3c2)C(O)=C1O (centres unmarked) [Example 17, 5-[2-(Dibenzofuran-2-oxy)ethyl]-3,4-dihydroxy-2(5H)-furanone]",60%
3,CCC/C=C\Cc1ccccc1C#CCCC1OC(=O)C(O)=C1O (centres unmarked) [Example 29],56%
4,"O=C1OC(CCSc2cccc3ccccc23)C(O)=C1O (centres unmarked) [Example 25, 3,4-Dihydroxy-5-[2-(naphthyl-1-thio)ethyl]-2(5H)-furanone]",56%

# Test system: Lipid peroxidation (rat liver microsomes)
# Experiment: Lipid peroxidation screen (LPO), CCl4-induced, liver microsomes
# Format: biochemical
# Settings: 300 μM
# Protocol: as §1
# Lipid peroxidation is a consequence of various stimuli, including reactive free radicals. Polyunsaturated fatty acids associated with plasma membranes are degraded due to enzymatic induction by reactive agents such as CCl4, leading to cellular damage. Briefly, microsomes are prepared from rat livers and the protein concentration is determined according to the method of D. Mansuy et al., Biochem. Biophys. Res. Comm. 135:1015-1021(1986). A reaction mixture consisting of 2 mg of the microsomal preparation, an NADPH generating system, 20 mM CCl4 and test compound are incubated for 12 minutes at 37° C. The reaction is terminated by the addition of a mixture of thiobarbituric acid and trichloroacetic acid. The absorbance is read at 535 nm and is proportional to the concentration of malondialdehyde. Compounds are screened at 300 μM.
row,Compound,LPO percent inhibition
1,"O=C1OC(CCOc2ccc(Oc3ccccc3)cc2)C(O)=C1O (centres unmarked) [Example 15, 3,4-Dihydroxy-5-[2-(4-phenoxy)phenoxyethyl]-2(5H)-furanone]",-5%
2,"O=C1OC(CCOc2ccc3oc4ccccc4c3c2)C(O)=C1O (centres unmarked) [Example 17, 5-[2-(Dibenzofuran-2-oxy)ethyl]-3,4-dihydroxy-2(5H)-furanone]",74%
3,"CC(C)Cc1ccc(C2(C)OC(=O)C(O)=C2O)cc1 (centres unmarked) [Example 3, 3,4-Dihydroxy-5-methyl-5-[4-(2-methylpropyl)phenyl]-2(5H)-furanone]",78%
4,CCC/C=C\Cc1ccccc1C#CCCC1OC(=O)C(O)=C1O (centres unmarked) [Example 29],72%
5,"O=C1OC(CCSc2cccc3ccccc23)C(O)=C1O (centres unmarked) [Example 25, 3,4-Dihydroxy-5-[2-(naphthyl-1-thio)ethyl]-2(5H)-furanone]",74%
6,"CC1(c2ccccc2)OC(=O)C(O)=C1O (centres unmarked) [Example 1, 3,4-Dihydroxy-5-methyl-5-phenyl-2(5H)-furanone]",63%
7,"CC1(c2ccc(Cl)cc2)OC(=O)C(O)=C1O (centres unmarked) [Example 4, 5-(4-Chlorophenyl)-3,4-dihydroxy-5-methyl-2(5H)-furanone]",54%

# Same assay, conditions: reference compound under screen conditions
row,IC50,Compound
1,280 µM,"Cc1c(C)c2c(c(C)c1O)CCC(C)(CCCC(C)CCCC(C)CCCC(C)C)O2 (stereo not drawn) [alpha-tocopherol, reference compound]"
